For 5 molecules, GI50 and TGI results are on record in PubChem BioAssay (NCI).

Assay in all cases: growth of human tumour cells (NCI), 48 h
Assay [1] concerns OVCAR-3 ovarian.
For assay [2], the system named is HCT-116 colon.
The test system of assay [3] is MDA-MB-231 breast.
Assay [4] relates to IGROV1 ovarian.
Assay [5] concerns DU-145 prostate.
Assay [6] has as its system SK-MEL-5 melanoma.
Assay [7] deals with UACC-257 melanoma.
The subject of assay [8] is MDA-MB-435.
Assay [9] deals with NCI-H23 lung.
Assay [10] concerns RXF 393 renal.

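Dose response: 5 concentrations. Exposure: 48 h. Format: 96-well plates. Endpoint: linear interpolation; highest concentration if not reached. GI50 marks 50% less growth. The concentration for full growth arrest is given as TGI.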

`COc1cc(-c2nc(SCCC(C)C)nc(Nc3ccc(S(N)(=O)=O)cc3)c2C#N)cc(OC)c1OC`: the GI50 in [1] was 2.38 µM; in assay [2] it was 2.01 µM; in [3], 2.19 µM; in assay [4], 3.39 µM; in [5], 3.47 µM; in assay [6], 1.59 µM. The GI50 in assay [7] is 3.9 µM; in assay [8], 3.15 µM; in assay [9], 2.92 µM; in assay [10] it was 1.83 µM. The TGI in assay [1] was 6.12 µM; in assay [2], 4.85 µM; in [3], 7.8 µM; in assay [4] it was greater than 100 µM; in assay [5], greater than 100 µM; in [6], 3.01 µM. Besides, the TGI in assay [7] is greater than 100 µM; in [8], greater than 100 µM; in assay [9] it was 12.5 µM; in assay [10] it was 3.97 µM.
Consider `Cc1cc(N2CCOCC2)cc2[nH]c(-c3c(NC[C@@H](O)c4cccc(Cl)c4)cc[nH]c3=O)nc12`, for which the GI50 is 5.58 µM in assay [1]; 1.64 µM in assay [2]; 1.22 µM in [3]; 0.912 µM in [4]; 1.42 µM in assay [5]; 2.13 µM in assay [6]. Further, the GI50 in assay [7] is 0.385 µM; in assay [8], 1.07 µM; in [9] it was 1.29 µM; in [10], 0.567 µM. The TGI came to 27.7 µM in assay [1]; 6.67 µM in assay [2]; 5.37 µM in [3]; 5.28 µM in assay [4]; 14.7 µM in assay [5]; 11.3 µM in assay [6]. The TGI is 7.37 µM in assay [7], 7.9 µM in assay [8], 11.3 µM in assay [9] and 2.11 µM in assay [10].
`Cc1ncc(C(=O)Nc2ccc(CN3CCN(C)CC3)c(C(F)(F)F)c2)cc1C#Cc1cnc(N)cc1C#N`: the GI50 is 0.995 µM in assay [1]; 0.182 µM in assay [2]; 0.222 µM in [3]; 0.103 µM in assay [4]; 0.278 µM in [5]; 0.711 µM in assay [6]. In addition, the GI50 in [7] is 0.288 µM; in assay [8] it was 0.084 µM; in assay [9], 0.707 µM; in assay [10], 0.227 µM. In addition, the TGI in [1] was determined as 3.25 µM; in assay [2], 2.92 µM; in assay [3], 1.92 µM; in assay [4] it was 2.06 µM; in assay [5], 2.75 µM; in [6], 2.76 µM. For the same molecule, the TGI in assay [7] turned out to be 3.12 µM; in [8], 1.61 µM; in assay [9] it was 3.21 µM; in assay [10], 1.47 µM.
Take `O=C(OC[C@H]1O[C@H](OC(=O)c2cc(O)c(O)c(OC(=O)c3cc(O)c(O)c(O)c3)c2)[C@H](OC(=O)c2cc(O)c(O)c(OC(=O)c3cc(O)c(O)c(O)c3)c2)[C@@H](OC(=O)c2cc(O)c(O)c(OC(=O)c3cc(O)c(O)c(O)c3)c2)[C@@H]1OC(=O)c1cc(O)c(O)c(OC(=O)c2cc(O)c(O)c(O)c2)c1)c1cc(O)c(O)c(OC(=O)c2cc(O)c(O)c(O)c2)c1`: the GI50 in [1] is 4.68 µM; in assay [2], 1.57 µM; in assay [3], 0.898 µM; in [4], 3.69 µM; in assay [5], 3.57 µM; in [6], 2.98 µM. Also, the GI50 was 13.4 µM in assay [7], 1.5 µM in assay [8], 1.56 µM in assay [9] and 1.2 µM in [10]. The TGI in assay [1] is 22.1 µM; in [2], 6.98 µM; in [3], greater than 25 µM; in [4], greater than 25 µM; in [5], greater than 25 µM; in [6], 13.1 µM. The TGI in [7] is greater than 25 µM; in assay [8] it was 7.89 µM; in assay [9], greater than 25 µM; in assay [10], 7.48 µM.
In the case of `Cc1cnc(C(=O)Nc2nc3ccc(S(=O)(=O)Nc4ccc(C5(C(F)(F)F)CC5)cc4)cc3[nH]2)cn1`, the GI50 in assay [1] was 0.25 µM; in assay [2] it was 0.452 µM; in assay [3], 1.5 µM; in assay [4], 0.606 µM; in [5], 0.357 µM; in assay [6] it was 0.232 µM. In addition, the GI50 in assay [7] is 5.13 µM; in assay [8], 0.0571 µM; in [9], 0.416 µM; in assay [10] it was 0.226 µM. Also, the TGI in [1] was found to be 1.34 µM; in assay [2], 10.5 µM; in assay [3], 15.6 µM; in [4] it was 5.02 µM; in assay [5], 2.23 µM; in assay [6] it was 3.85 µM. The TGI in assay [7] came to 29.9 µM; in assay [8], 0.238 µM; in assay [9], 5.98 µM; in [10], 1.11 µM.
